For 21 compounds, IC50 results are on record in US7989438B2, “Therapeutic compounds” (Istituto di Ricerche di Biologia Molecolare P. Angeletti SpA, priority 2007, dated 2011).

Molecules are shown by their SMILES.

The subject of the first assay is HCV subgenomic replication. Briefly: Cell based HCV replication assay (subgenomic replicon in Huh-7 cells, NS3 Cell-ELISA). Particulars: Hepatitis C virus, Huh-7; Table 3, various macrocycles; activity ranges; read-out: IC50* (nM), Inhibition of HCV subgenomic replication. Summed up:
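Huh-7 cells stably carrying the I377neo/NS3-3′/wt subgenomic replicon, seeded at 10^4 cells/well in DMEM/10% FCS and exposed to inhibitor for 96 h. NS3 expression was measured by Cell-ELISA (mAb 10E5/24, alkaline phosphatase, absorbance 405/620 nm), in duplicate. IC50 was fitted to the Hill equation, with background from parental Huh-7 cells.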
In general terms: In antiviral work, replicon cells carry a viral genome segment that copies itself.
As usually defined, the IC50 is the concentration needed to halve the response being measured. Turning to `O=C1NS(=O)(=O)N2CCCN(CCN(Cc3ccccc3)[C@H]3COc4ccccc4-c4c(C5CCCCC5)c5ccc1cc5n4C3)CC2` [Example 309, (20R)-21-benzyl-31-cyclohexyl-18-oxa-2-thia-1,3,10,21,24-pentaazahexacyclo[22.3.2.1^5,9.1^8,11.1^10,20.0^12,17]dotriaconta-5(32),6,8,11(31),12,14,16-heptaen-4-one 2,2-dioxide], the IC50 is 150 to 500 nM.

As for `CN(C)CCN1CCOC2CCN(CC2)S(=O)(=O)NC(=O)c2ccc3c(C4CCCCC4)c4n(c3c2)C[C@@H]1COc1ccccc1-4` [Example 307, (20R)-31-cyclohexyl-21-[2-(dimethylamino)ethyl]-18,24-dioxa-2-thia-1,3,10,21-tetraazahexacyclo[23.2.2.1^5,9.1^8,11.1^10,20.0^12,17]dotriaconta-5(32),6,8,11(31),12,14,16-heptaen-4-one 2,2-dioxide], the IC50 was in the range of 150 to 500 nM.

The same assay, now with this note: Hepatitis C virus, Huh-7; Table 5, various macrocycles; activity ranges; read-out: IC50* (nM), Inhibition of HCV subgenomic replication.
Consider `CN1C2CCN(CCC3COc4ccccc4-c4c(C5CCCCC5)c5ccc(cc5n4C3)C(=O)NS1(=O)=O)CC2` (stereo not drawn) [Example 504, 30-cyclohexyl-23-methyl-6-oxa-22-thia-1,14,21,23-tetraazahexacyclo[22.2.2.1^4,14.1^13,16.1^15,19.0^7,12]hentriaconta-7,9,11,13(30),15(29),16,18-heptaen-20-one 22,22-dioxide], for which the IC50 lay in the range of 25 to 150 nM.

The assay is the same for the next values; noted with them: Table 1, 16 membered macrocycles; activity ranges; read-out: IC50* (nM), Inhibition of HCV subgenomic replication.
Regarding `CN(C)CC(=O)N1CCN(C)[C@H]2COc3ccccc3-c3c(C4CCCCC4)c4ccc(cc4n3C2)C(=O)NS(=O)(=O)N(C)CC1` [Example 105, (7R)-14-cyclohexyl-21-(N,N-dimethylglycyl)-18,24-dimethyl-7,8-dihydro-6H-7,11-(epiminoethanoiminoethanoiminothioiminomethano)-indolo[1,2-e][1,5]benzoxazocin-15-one 17,17-dioxide], the IC50 was < 25 nM. For `CN1CCN(CCOCc2ccccc2)CCN(C)S(=O)(=O)NC(=O)c2ccc3c(C4CCCCC4)c4n(c3c2)CC1COc1ccccc1-4` [Example 102, (7R)-21-[2-(benzyloxy)ethyl]-14-cyclohexyl-18,24-dimethyl-7,8-dihydro-6H-7,11-(epiminoethanoiminoethanoiminothioiminomethano)-indolo[1,2-e][1,5]benzoxazocin-15-one 17,17-dioxide], the half-inhibitory concentration (IC50) is < 25 nM. `CN1CCCN(C)S(=O)(=O)NC(=O)c2ccc3c(C4CCCCC4)c4n(c3c2)CC(CC1)COc1ccccc1-4` (stereo not drawn) [Example 101, 14-cyclohexyl-18,22-dimethyl-7,8-dihydro-6H-7,11-(ethanoiminopropanoiminothioiminomethano)indolo[1,2-e][1,5]benzoxazocin-15-one 17,17-dioxide]: the IC50 lay within 25 to 150 nM.

The same assay, now with this note: Table 2, various macrocycles; activity ranges; read-out: IC50* (nM), Inhibition of HCV subgenomic replication.
In the case of `CCN1CCN(CCN(C)C)C2COc3ccccc3-c3c(C4CCCCC4)c4ccc(cc4n3C2)C(=O)NS(=O)(=O)N(C)CC1` [Example 217, (7R)-14-cyclohexyl-24-[2-(dimethylamino)ethyl]-21-ethyl-18-methyl-7,8-dihydro-6H-7,11-(epiminoethanoiminoethanoiminothioiminomethano)-indolo[1,2-e][1,5]benzoxazocin-15-one 17,17-dioxide], the IC50 was < 25 nM.

For `CCCc1cccc2c1OCC1Cn3c-2c(C2CCCCC2)c2ccc(cc23)C(=O)NS(=O)(=O)N(C)CCN(C(C)C)CCN1C` [Example 213, (7R)-14-cyclohexyl-21-isopropyl-18,24-dimethyl-4-propyl-7,8-dihydro-6H-7,11-(epiminoethanoiminoethanoiminothioiminomethano)-indolo[1,2-e][1,5]benzoxazocin-15-one 17,17-dioxide], the concentration for half-maximal inhibition (IC50) lay in the range of 25 to 150 nM.

The assay is the same for the next values; noted with them: Table 4, various macrocycles; activity ranges; read-out: IC50* (nM), Inhibition of HCV subgenomic replication.
For `CN1CCN(C)[C@H]2COc3c(CC4CC4)cccc3-c3c(C4CCCCC4)c4ccc(cc4n3C2)C(=O)NS(=O)(=O)N(C)CC1` [Example 407, (7R)-14-cyclohexyl-4-(cyclopropylmethyl)-18,21,24-trimethyl-7,8-dihydro-6H-7,11-(epiminoethanoiminoethanoiminothioiminomethano)-indolo[1,2-e][1,5]benzoxazocin-15-one 17,17-dioxide], the IC50 was < 25 nM. For `COc1cccc2c1OCC1Cn3c-2c(C2CCCCC2)c2ccc(cc23)C(=O)NS(=O)(=O)N(C)CCN(C)CCN1C` [Example 412, (7R)-14-cyclohexyl-4-methoxy-18,21,24-trimethyl-7,8-dihydro-6H-7,11-(epiminoethanoiminoethanoiminothioiminomethano)-indolo[1,2-e][1,5]benzoxazocin-15-one 17,17-dioxide], the IC50 was < 25 nM.

The assay is the same for the next values; noted with them: Table 5, various macrocycles; activity ranges; read-out: IC50* (nM), Inhibition of HCV subgenomic replication.
On to `Cc1cccc2c1OCC1CCN(C)CCCN(C)S(=O)(=O)NC(=O)c3ccc4c(C5CCCCC5)c-2n(c4c3)C1` [Example 521, (7R)-14-cyclohexyl-4,18,22-trimethyl-7,8-dihydro-6H-7,11-(ethanoiminopropanoiminothioiminomethano)indolo[1,2-e][1,5]benzoxazocin-15-one 17,17-dioxide], for which the IC50 is < 25 nM.

For the compound `COc1ccc2c(c1)OCC1CCN(C)CC(F)CN(C)S(=O)(=O)NC(=O)c3ccc4c(C5CCCCC5)c-2n(c4c3)C1` [Example 525, (7R)-14-cyclohexyl-20-fluoro-3-methoxy-18,22-dimethyl-7,8-dihydro-6H-7,11-(ethanoiminopropanoiminothioiminomethano)indolo[1,2-e][1,5]benzoxazocin-15-one 17,17-dioxide], the IC50 is < 25 nM. Still for that read-out and setting: under `COc1ccc2c(c1)OCC1CCN(C)CC(F)(F)CN(C)S(=O)(=O)NC(=O)c3ccc4c(C5CCCCC5)c-2n(c4c3)C1` [Example 524, (7R)-14-cyclohexyl-20,20-difluoro-3-methoxy-18,22-dimethyl-7,8-dihydro-6H-7,11-(ethanoiminopropanoiminothioiminomethano)indolo[1,2-e][1,5]benzoxazocin-15-one 17,17-dioxide] stands 150 to 500 nM. On to `Cc1cccc2c1OCC1CCCN(C)CCN(C)S(=O)(=O)NC(=O)c3ccc4c(C5CCCCC5)c-2n(c4c3)C1` [Example 520, (7R)-14-cyclohexyl-4,18,21-trimethyl-7,8-dihydro-6H-7,11-(propanoiminoethanoiminothioiminomethano)indolo[1,2-e][1,5]benzoxazocin-15-one 17,17-dioxide], for which the IC50 is < 25 nM.

Still in this assay, the particulars now being: Table A; activity ranges; Huh-7 replicon cells, 96 hours; read-out: IC50 (nM), Inhibition of HCV subgenomic replication.
For the compound `CN1CCOCCN(C)S(=O)(=O)NC(=O)c2ccc3c(C4CCCCC4)c4n(c3c2)C[C@@H]1COc1ccccc1-4` [Compound A20, (7R)-14-cyclohexyl-18,24-dimethyl-7,8-dihydro-6H-7,11-(epiminoethanooxyethanoiminothioiminomethano)indolo[1,2-e][1,5]benzoxazocin-15-one 17,17-dioxide], the IC50 lay within 25 to 150 nM. Consider `COc1ccc2c(c1)OCC1CCN(C)CCCN(C)S(=O)(=O)NC(=O)c3ccc4c(C5CCCCC5)c-2n(c4c3)C1` (single isomer, unassigned; (-)) [Compound A35, (−)-14-cyclohexyl-3-methoxy-18,22-dimethyl-7,8-dihydro-6H-7,11-(ethanoiminopropanoiminothioiminomethano)indolo[1,2-e][1,5]benzoxazocin-15-one 17,17-dioxide], for which the IC50 was < 25 nM. Take `CC(C)N1CCN(C)C2COc3ccccc3-c3c(C4CCCCC4)c4ccc(cc4n3C2)C(=O)NS(=O)(=O)N(C)CC1` [Compound A4, (7R)-14-cyclohexyl-21-isopropyl-18,24-dimethyl-7,8-dihydro-6H-7,11-(epiminoethanoiminoethanoiminothioiminomethano)indolo[1,2-e][1,5]benzoxazocin-15-one 17,17-dioxide]: the IC50 was < 25 nM. On to `CN1CCN(C)[C@H]2COc3ccccc3-c3c(C4CCCCC4)c4ccc(cc4n3C2)C(=O)NS(=O)(=O)N(CC2CC2)CC1` [Compound A5, (7R)-14-cyclohexyl-18-(cyclopropylmethyl)-21,24-dimethyl-7,8-dihydro-6H-7,11-(epiminoethanoiminoethanoiminothioiminomethano)indolo[1,2-e][1,5]benzoxazocin-15-one 17,17-dioxide], for which the IC50 was < 25 nM. Turning to `CN(C)CCN1CCC(C)(C)CCN(C)S(=O)(=O)NC(=O)c2ccc3c(C4CCCCC4)c4n(c3c2)CC1COc1ccccc1-4` [Compound A31, (7R)-14-cyclohexyl-24-[2-(dimethylamino)ethyl]-18,21,21-trimethyl-7,8-dihydro-6H-7,11-(epiminopentanoiminothioiminomethano)indolo[1,2-e][1,5]benzoxazocin-15-one 17,17-dioxide], the IC50 is < 25 nM. Turning to `CN1CCCC2COc3ccccc3-c3c(C4CCCCC4)c4ccc(cc4n3C2)C(=O)NS(=O)(=O)N(C)CC1` [Compound A25, (7R)-14-cyclohexyl-18,21-dimethyl-7,8-dihydro-6H-7,11-(propanoiminoethanoiminothioiminomethano)indolo[1,2-e][1,5]benzoxazocin-15-one 17,17-dioxide], the IC50 was < 25 nM. Regarding `CNC(=O)CN1CCN(C)CCN(C)S(=O)(=O)NC(=O)c2ccc3c(C4CCCCC4)c4n(c3c2)CC1COc1ccccc1-4` [Compound A30, 2-[(7R)-14-cyclohexyl-18,21-dimethyl-17,17-dioxido-15-oxo-7,8-dihydro-6H-7,11-(epiminoethanoiminoethanoiminothioiminomethano)indolo[1,2-e][1,5]benzoxazocin-24-yl]-N-methylacetamide], the IC50 lay in the range of 25 to 150 nM.
